Data set [1] deals with Plasmodium falciparum. Briefly: Antiplasmodial activity against asexual blood stage of Plasmodium falciparum 3D7 assessed as inhibition of parasite growth incubated for 72 hrs by LDH assay. The format is functional, organism-based. As to conditions: 3D7, 72 h.
Data set [2] is described as follows: Cytotoxicity against human HepG2 cells assessed as inhibition of cell growth incubated for 48 hrs by CellTiter-Glo luminescence assay. The data set is classed as toxicity, cell-based. On the technique in general: In ATP-based viability assays light output follows the ATP content of the culture.
Data set [3] relates to Plasmodium falciparum. Description: Antiplasmodial activity against Plasmodium falciparum Dd2 infected in erythrocytes assessed as inhibition of parasite growth incubated for 72 hrs by [3H]hypoxanthine incorporation based microbeta counting analysis. The data set is classed as functional, organism-based. The settings on record: Dd2, Erythrocyte.
In data set [4] the test system is Plasmodium falciparum. Description: Antiplasmodial activity against multidrug-resistant Plasmodium falciparum Dd2 harboring PI4K-S743F mutant infected in erythrocytes assessed as inhibition of parasite growth incubated for 72 hrs by [3H]hypoxanthine incorporation based microbeta counting analysis. The format is functional, organism-based. As to conditions: Dd2, Erythrocyte.

The nature of data set [5]: Lipophilicity, elogD of the compound in 1-Octanol/PBS at pH 7.4 at 7.5 uM incubated for 2 hrs by miniaturized shake flask method. The data set is classed as physicochemical.
Data set [6] in a line: Intrinsic clearance in human liver microsomes at 1 uM measured for 60 mins by LC-MS/MS analysis. The format is ADME, Microsome. As to conditions: read-out: CLH.
Data set [7] can be described thus: Aqueous solubility of the compound in PBS buffer at pH 7.4 at 200 uM incubated for 2 hrs under shaking condition by miniaturized shake flask method. The data set is classed as physicochemical.
Data set [8] in a line: Intrinsic clearance in rat hepatocytes at 1 uM measured per million cells for 90 mins by LC-MS/MS analysis. The data set is classed as ADME, cell-based, Hepatocyte. The settings on record: read-out: CLH.
For data set [9], the system named is Plasmodium falciparum. Description: Antiplasmodial activity against multidrug-resistant Plasmodium falciparum Dd2 harboring CARL-I1139K mutant infected in erythrocytes assessed as inhibition of parasite growth incubated for 72 hrs by [3H]hypoxanthine incorporation based microbeta counting analysis. As to conditions: Dd2, Erythrocyte. The format is functional, organism-based.

The subject of data set [10] is Plasmodium falciparum. Description: Antiplasmodial activity against multidrig-resistant Plasmodium falciparum Dd2 harboring eEF2Y-I86N mutant infected in erythrocytes assessed as inhibition of parasite growth incubated for 72 hrs by [3H]hypoxanthine incorporation based microbeta counting analysis. The data set is classed as functional, organism-based. The settings on record: Dd2, Erythrocyte.

In data set [11] the test system is Plasmodium falciparum. Briefly: Antiplasmodial activity against ring stage of Plasmodium falciparum 3D7 expressing ABCI3-HAreg assessed as inhibition of parasite proliferation incubated for 72 hrs in presence of ABCI3 inhibitor, GlcN by SYBR dye based flow cytometry. The data set is classed as functional, organism-based. As to conditions: 3D7, 72 h. (A flow cytometer gives signals particle by particle.)

Molecules are shown by their SMILES. Values after ≈ are worked out from the molar mass of the structure shown. Bounds are passed on as bounds.

By EC50 is commonly meant the concentration that produces a half-maximal response. As usually defined, the CC50 is the concentration that lowers cell viability or growth by half. As usually defined, the logD is lipophilicity at a set pH, counting ionised and neutral species. The low end stands for a more hydrophilic compound, the high end for a more lipophilic compound. The thermodynamic solubility is solubility found after equilibrating the solid with the medium.

For the compound `Cc1n[nH]c2nc(C3CC3)cc(C(=O)N3CCOc4ccccc43)c12`, the EC50 in the data set on Plasmodium falciparum [1] was above 10000 nM.
In the case of `Cc1nn(C(C)(C)C)c2nc(C3CC3)cc(C(=O)N3CCc4ccccc43)c12`, the CC50 at 48 h in data set [2] was above 40000 nM. In the data set on Plasmodium falciparum [1], the EC50 was found to be 2480 nM.
Consider `CS(=O)(=O)c1ccc(-c2cnc(N)c(-c3ccc(C(F)(F)F)nc3)c2)cc1` [MMV-048], for which the EC50 was determined as 12 nM in the data set on Plasmodium falciparum [3] and 90 nM in the data set with Plasmodium falciparum [4].
`Cc1nn(C(C)(C)C)c2nc(C3CC3)cc(C(=O)N3CCOc4cc(F)ccc43)c12` registered a logD at 2 h, 7.5 µM in [5] of 5.9. For the same compound, the microsomal CLint at 1 µM in [6] turned out to be 160 µL/min/mg. For the same compound, in data set [2], the half-maximal cytotoxic concentration (CC50) at 48 h is above 10000 nM. The EC50 with Plasmodium falciparum [1] is 1050 nM. Besides, the thermodynamic solubility at 2 h, 200 µM in data set [7] was below 2.5 µM. For the same compound, the hepatocyte CLint at 1 µM in data set [8] was 23 µL/min/1e6 cells.
Turning to `Cc1nn(C(C)C)c2nc(C(C)C)cc(C(=O)Nc3nnc4ccccn34)c12`, the EC50 in the data set with Plasmodium falciparum [1] was determined as 860 nM.
`CC1(C)c2nc(-c3ccc(F)cc3)c(Nc3ccc(F)cc3)n2CCN1C(=O)CN` [GANAPLACIDE]: the EC50 came to 17 nM with Plasmodium falciparum [3] and 1920 nM in the data set on Plasmodium falciparum [9].
In the case of `CC1CN(C(=O)c2cc(-c3ccccc3)nc3c2cnn3C(C)C)CCO1` (stereo unspecified), the CC50 at 48 h in data set [2] was above 40000 nM. Moreover, the EC50 in the data set with Plasmodium falciparum [1] amounted to 1000 nM.
For `COc1ccccc1N(C)C(=O)c1cc(C2CC2)nc2c1c(C)nn2C(C)(C)C`, in that order: above 10000 nM and 2360 nM.
The matching figures for `CC(C)(C)n1nc(C2CC2)c2c(C(=O)N3CCOc4ccccc43)cc(C3CC3)nc21`: above 10000 nM and 79 nM.
For `CC(C)(C)n1ncc2c(C(=O)N3CCOc4ccccc43)cc(C3CC3)nc21`, in that order: above 40000 nM and 490 nM.
`Cc1nn(C(C)(C)C)c2nc(C3CC3)cc(C(=O)Nc3ccccc3)c12`: the 50% cytotoxic concentration (CC50) at 48 h in data set [2] was above 10000 nM. In addition, the EC50 with Plasmodium falciparum [1] turned out to be 3850 nM.
In turn, `COc1nn(C(C)(C)C)c2nc(C3CC3)cc(C(=O)N3CCOc4ccncc43)c12` had a logD at 2 h, 7.5 µM in data set [5] of 5.1. The microsomal CLint at 1 µM in [6] was found to be 423 µL/min/mg. The CC50 at 48 h in data set [2] was found to be 7260 nM. For the same compound, the EC50 with Plasmodium falciparum [1] was 5 nM. The compound further yielded a thermodynamic solubility at 2 h, 200 µM in data set [7] of 19 µM (≈ 7.74 µg/mL). The hepatocyte CLint at 1 µM in [8] was 87 µL/min/1e6 cells.
Compound `COc1nn(C(C)C)c2nc(C3CC3)cc(C(=O)N3CCOc4ccncc43)c12` returned a logD at 2 h, 7.5 µM in [5] of 3.7. In addition, the microsomal CLint at 1 µM in data set [6] was above 462 µL/min/mg. Further, the CC50 at 48 h in data set [2] is 28700 nM. Besides, the EC50 with Plasmodium falciparum [1] is 15 nM. In data set [7], this compound returned a solubility (thermodynamic) at 2 h, 200 µM of 161 µM (≈ 63.3 µg/mL). For the same compound, the hepatocyte CLint at 1 µM in data set [8] was above 92 µL/min/1e6 cells.
On to `Cc1nn(C)c2nc(C3CC3)cc(C(=O)N3CCOc4ccccc43)c12`, for which, in the data set on Plasmodium falciparum [1], the EC50 was above 10000 nM.
Turning to `O=C(NCCN1CCCC1)c1cc(-c2ccc(CN3CCOCC3)cc2)nc2ccc(F)cc12` [CABAMIQUINE], the figures for the EC50 with Plasmodium falciparum [3] and in the data set on Plasmodium falciparum [10] were 1 nM and 850 nM, respectively.
For the compound `Cc1nn(C(C)(C)C)c2nc(C3CC3)cc(C(=O)N3CCCCC3)c12`, the CC50 at 48 h in data set [2] was above 40000 nM. The EC50 in the data set with Plasmodium falciparum [1] came out at 635 nM.
In data set [5], `Cc1nn(C(C)(C)C)c2nc(C3CC3)cc(C(=O)N3CCN(C)c4ccccc43)c12` came in with a logD at 2 h, 7.5 µM of 5.4. In addition, the microsomal CLint at 1 µM in [6] turned out to be 387 µL/min/mg. For the same compound, in data set [2], the CC50 at 48 h was above 40000 nM. For the same compound, the EC50 with Plasmodium falciparum [1] is 257 nM. This compound also had a thermodynamic solubility at 2 h, 200 µM in data set [7] of 3 µM (≈ 1.21 µg/mL). Besides, the hepatocyte CLint at 1 µM in [8] came out at 65 µL/min/1e6 cells.
Regarding `Cc1nn(C(C)(C)C)c2nc(C3CC3)cc(C(=O)N3CCOc4ncccc43)c12`, the CC50 at 48 h in data set [2] was above 10000 nM. Moreover, in the data set on Plasmodium falciparum [1], the EC50 came out at 2500 nM.
Compound `COc1nn(C(C)(C)C)c2nc(C3CC3)cc(C(=O)N3CCOc4ccccc43)c12` registered a logD at 2 h, 7.5 µM in data set [5] above 6.4. Also, the microsomal CLint at 1 µM in [6] amounted to 300 µL/min/mg. Further, the CC50 at 48 h in [2] was above 40000 nM. Besides, the EC50 in the data set with Plasmodium falciparum [1] was determined as 123 nM. This compound came in with a thermodynamic solubility at 2 h, 200 µM in data set [7] below 2.5 µM. Moreover, the hepatocyte CLint at 1 µM in data set [8] was determined as 19 µL/min/1e6 cells.
In the case of `Cc1nn(C(C)(C)C)c2nc(C3CC3)cc(C(=O)N3CCCc4ccccc43)c12`, the logD at 2 h, 7.5 µM in [5] was 5.9. Also, the microsomal CLint at 1 µM in [6] worked out at 277 µL/min/mg. Further, the CC50 at 48 h in data set [2] was above 40000 nM. The EC50 with Plasmodium falciparum [1] is 164 nM. In data set [7], this compound yielded a solubility (thermodynamic) at 2 h, 200 µM of 2.8 µM (≈ 1.09 µg/mL). Besides, the hepatocyte CLint at 1 µM in data set [8] was 45 µL/min/1e6 cells.
`Cc1nn(C(C)(C)C)c2nc(-c3ccccc3)cc(C(=O)N3CCOc4ccccc43)c12`: the CC50 at 48 h in data set [2] is above 40000 nM. In the data set on Plasmodium falciparum [1], the EC50 was determined as 453 nM.
The matching figures for `CCc1cc(C(=O)N2CCOc3ccccc32)c2c(C)nn(C(C)(C)C)c2n1`: above 40000 nM and 843 nM.
For `CCN(CC)CCCC(C)Nc1ccnc2cc(Cl)ccc12` (stereo unspecified) [CHLOROQUINE], the EC50 in the data set on Plasmodium falciparum [11] was 11.3 nM.

These data come from ChEMBL document CHEMBL5608197, “Optimization of pyrazolopyridine 4-carboxamides with potent antimalarial activity for which resistance is associated with the P. falciparum transporter ABCI3” (Eur J Med Chem, 2024).
